The subject of one data set is CYP2C-3. Briefly: Reversible inhibition kinetics (Lineweaver-Burk), CYP2C-3 in RLMs. The class given is in vitro ADME, rat. Here is the method:
(§1) The components of the incubation system were as follows: 0.20 mg/mL HLMs or 0.20 mg/mL RLMs, 0.1 M Tris-HCl, vortioxetine, and the probe substrates of each enzyme. In the study of Km’s (Michaelis–Menten constant) experiment, midazolam (1, 2, 5, 10, 20, 50 and 100 μM in HLMs and RLMs) corresponded to CYP3A4/3A; bupropion (10, 20, 50, 100, 200, 500, 1,000 and 2000 μM in HLMs; 1, 2, 5, 10, 20, 50, 100 and 200 μM in RLMs) corresponded to CYP2B6/2B; amodiaquine (5, 10, 20, 50, 100 and 200 μM in HLMs; 10, 20, 50, 100, 200, 500 μM in RLMs) corresponded to CYP2C8/CYP2C-1; losartan (1, 2, 5, 10, 20, 50, 100, 200 μM in HLMs; 10, 20, 50, 100, 200, 500 and 1,000 μM in RLMs) corresponded to CYP2C9/CYP2C-2; mephenytoin (20, 50, 100, 200, 500 and 1,000 μM in HLMs; 5, 10, 20, 50, 100, 200, 500 and 1,000 μM in RLMs) corresponded to CYP2C19/CYP2C-3; and dextromethorphan (1, 2, 5, 10, 20, 50 and 100 μM in HLMs and RLMs) corresponded to CYP2D6/CYP2D. After 5.0 min of preincubation in the shaking water bath, the reaction was started with the addition of 1.0 mM NADPH. The incubated temperature at 37°C for 30 min. After the incubation, the enzyme reaction was stopped by cooling at −80°C, and 200 μL of acetonitrile and 20 μL of internal standard diazepam (200 ng/mL) were added for protein precipitation. The solution was fully vortexed and centrifuged at 13,000 × rpm for 10 min, and the supernatant was collected for data analysis by UPLC-MS/MS.
The inhibitory mechanism of the inhibitor on the enzyme was generally used by different concentrations of the inhibitor against different concentrations of the probe substrate. The concentrations of the inhibitor and the concentrations of probe substrates in the experiment were estimated based on IC50 and Km values, respectively.
In RLMs, the concentrations of the substrates midazolam and dextromethorphan were 0.8, 1.6, 3.5, 7 μM and 5, 10, 20, 40 μM, respectively, vortioxetine concentrations were 4, 8, 16, 32 μM. The concentrations of mephenytoin and amodiaquine were 100, 200, 400, 800 μM and 5, 10, 20, 40 μM, respectively, vortioxetine concentrations were 5, 10, 20, 40 μM. The losartan concentrations were 4, 8, 15, 30 μM, corresponding to vortioxetine concentrations of 0.08, 0.15, 0.3, 0.6 μM. […]
(§2) All experiments results were detected by UPLC-MS/MS, which equipped with a Waters Acquity UPLC system (Milford, MA, United States) and a Waters Xevo TQ-S triple quadrupole tandem mass spectrometer with an electrospray ionization source (Milford, MA, United States). […]
(§3) IC50 values and enzyme kinetic parameters were calculated by Graphpad Prism 6.0 (GraphPad software Inc., CA, United States). […] Data for each experiment were expressed as mean ± SD (n = 3).

The next data set deals with CYP2D. Briefly: Reversible inhibition kinetics (Lineweaver-Burk), CYP2D in RLMs. The class given is in vitro ADME, rat. Here is the method:
as §1, with “After 5.0 min of preincubation in the shaking water bath, the reaction was started with the addition of 1.0 mM NADPH. The incubated temperature at 37°C for 30 min. After the incubation, the enzyme reaction was stopped by cooling at −80°C, and 200 μL of acetonitrile and 20 μL of internal standard diazepam (200 ng/mL) were added for protein precipitation. The solution was fully vortexed and centrifuged at 13,000 × rpm for 10 min, and the supernatant was collected for data analysis by UPLC-MS/MS.” left out
as §2, §3

A further data set relates to CYP450. Briefly: Overall assessment of time-dependent inhibition (IC50-shift) on CYP450 in HLMs and RLMs. It is filed as in vitro ADME, human and rat. Here is the method:
(§4) IC50-shift was used to investigate whether the drug produced time-dependent inhibition (TDI) of the enzyme. […] The above mixture was then incubated for another 30 min. During the experiment, the individual substrates midazolam (4 μM), bupropion (40 μM), amodiaquine (3 μM), losartan (8 μM), mephenytoin (90 μM), and dextromethorphan (10 μM) were determined with vortioxetine IC50-shift in HLMs. […] Other experimental conditions were the same as above.

The target in the next data set is CYP3A4 (Homo sapiens, UniProt P08684). Briefly: IC50 of vortioxetine on CYP3A4 (midazolam) in HLMs. The class given is in vitro ADME. Details: 0.20 mg/mL HLMs; from tissue; host or cells: human liver microsomes. The protocol:
as §1, with “After 5.0 min of preincubation in the shaking water bath, the reaction was started with the addition of 1.0 mM NADPH. The incubated temperature at 37°C for 30 min. After the incubation, the enzyme reaction was stopped by cooling at −80°C, and 200 μL of acetonitrile and 20 μL of internal standard diazepam (200 ng/mL) were added for protein precipitation. The solution was fully vortexed and centrifuged at 13,000 × rpm for 10 min, and the supernatant was collected for data analysis by UPLC-MS/MS.” left out
as §2, §3

For a further data set, the target named is CYP2C19 (Homo sapiens, UniProt P33261). Briefly: IC50-shift experiment, CYP2C19 in HLMs. The class given is in vitro ADME. Also on record: 0.20 mg/mL HLMs or 0.20 mg/mL RLMs; from tissue; host or cells: human liver microsomes. The following applies: for IC50: mephenytoin 90 μM. The protocol:
as §1, §4
All experiments results were detected by UPLC-MS/MS, which equipped with a Waters Acquity UPLC system (Milford, MA, United States) and a Waters Xevo TQ-S triple quadrupole tandem mass spectrometer with an electrospray ionization source (Milford, MA, United States). The chromatographic separation was performed on a Waters ACQUITY UPLC BEH C18 column (2.1 × 50 mm, 1.7 μm, Waters Corp.) at 40°C. The mobile phase was consisted of acetonitrile (A) and 0.1% formic acid in water (B). The gradient elution at a flow rate of 0.4 mL/min was conducted as follows: 0–0.5 min, 10% A; 0.5–1.0 min, 10%–90% A; 1.0–2.0 min, 90% A; 2.0–2.1 min, 90%–10% A, and 2.1–3.0 min, 10% A. The relevant analysis parameters were shown in Table 1.
as §3

“Also recorded” adds a separate entry of the source. Read-outs that look alike come from different tables or passages of the source.

The text below walks through data of PMC10544575, “Inhibitory mechanism of vortioxetine on CYP450 enzymes in human and rat liver microsomes” (Frontiers in Pharmacology, 2023).

Sequence of CYP2C19 (P33261 whole entry): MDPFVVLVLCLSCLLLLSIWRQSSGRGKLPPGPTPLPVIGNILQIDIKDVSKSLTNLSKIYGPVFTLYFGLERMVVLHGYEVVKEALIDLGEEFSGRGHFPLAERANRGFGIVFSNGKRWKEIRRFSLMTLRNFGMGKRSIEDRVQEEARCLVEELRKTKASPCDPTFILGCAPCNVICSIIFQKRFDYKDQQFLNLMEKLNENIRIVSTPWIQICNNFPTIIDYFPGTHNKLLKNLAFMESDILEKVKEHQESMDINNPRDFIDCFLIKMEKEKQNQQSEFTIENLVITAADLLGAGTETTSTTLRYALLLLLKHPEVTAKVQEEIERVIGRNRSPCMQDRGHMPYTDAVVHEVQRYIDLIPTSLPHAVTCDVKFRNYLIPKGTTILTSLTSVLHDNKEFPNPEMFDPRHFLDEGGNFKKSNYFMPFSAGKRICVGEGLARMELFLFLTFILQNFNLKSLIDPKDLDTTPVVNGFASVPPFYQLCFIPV
Sequence of CYP3A4 (P08684 whole entry): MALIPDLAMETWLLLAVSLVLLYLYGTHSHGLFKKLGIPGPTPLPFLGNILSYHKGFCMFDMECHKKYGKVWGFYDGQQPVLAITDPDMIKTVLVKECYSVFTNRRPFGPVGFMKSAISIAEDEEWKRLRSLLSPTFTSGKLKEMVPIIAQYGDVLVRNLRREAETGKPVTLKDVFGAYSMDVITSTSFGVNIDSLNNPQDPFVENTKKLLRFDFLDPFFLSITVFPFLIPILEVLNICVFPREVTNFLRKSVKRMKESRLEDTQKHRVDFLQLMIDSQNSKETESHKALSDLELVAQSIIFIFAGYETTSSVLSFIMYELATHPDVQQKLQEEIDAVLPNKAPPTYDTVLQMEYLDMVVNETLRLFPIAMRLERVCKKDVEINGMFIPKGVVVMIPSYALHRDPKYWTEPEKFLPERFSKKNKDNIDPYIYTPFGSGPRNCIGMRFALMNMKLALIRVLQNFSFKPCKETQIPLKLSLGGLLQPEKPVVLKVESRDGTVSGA

For `Cc1ccc(Sc2ccccc2N2CCNCC2)c(C)c1` [vortioxetine], the α in the data set on CYP2C-3 (mephenytoin) was determined as 2.97. Besides, the Inhibition type entry is reported as “noncompetitive inhibition” with CYP2C-3 (mephenytoin, Lineweaver-Burk plot) and “uncompetitive inhibition” with CYP2D (dextromethorphan, Lineweaver-Burk plot). In the data set with CYP2C-3 (mephenytoin, secondary plot of y-intercepts), the αKi is 12.54 µM. The Ki (as a rule, the equilibrium dissociation constant of an inhibitor or competing ligand from its target) at 30 min in the data set on CYP2C-3 (rat, rat liver microsomes, probe mephenytoin) is 4.23 µM; in the data set on CYP2D (rat, rat liver microsomes, probe dextromethorphan) it was 101 µM. Also, the “reversibility of inhibition of CYP450 enzymes” value in the data set on CYP450 (all CYP450 enzymes studied) is on record as “reversible inhibition”. The “time-dependent inhibition (TDI)” value in the data set on CYP450 (six CYP450 isoforms in HLMs and RLMs, judged by IC50-shift (>10 = TDI)) was “no time-dependent inhibition (TDI); also recorded: no TDI effect”. Also, the half-inhibitory concentration (IC50) (as a rule, the concentration at which inhibition is half-maximal) on CYP3A4 (HLMs 0.20 mg/mL, midazolam at Km, 37°C, 30 min, read-out: IC50) was 9.31 µM; against CYP3A4 (inhibitory effect (strength judged by IC50), HLMs) it was 1 to 10 µM; on CYP2C19 (CYP2C19, 30 min preincubation with 1.0 mM NADPH), 2.83 µM; on CYP2C19 (CYP2C19, 30 min preincubation without NADPH), 5.88 µM. At CYP2C19 (human, human liver microsomes, probe mephenytoin (90 μM), CYP2C19, ratio IC50 (−) NADPH to IC50 (+) NADPH, read-out: IC50 fold shift), the IC50 shift at 30 min amounted to 2.08. The “activity of CYP2C19 with the NADPH” value at CYP2C19 (preincubation with NADPH vs without) was “significantly reduced”.
